This passage reports IC50 results from patent US20250136607A1 (REGOR PHARMACEUTICALS, INC., priority 2021, published 2025).

Experiment [1] relates to Citrullinated Histone H3 in dHL-60 cells (differentiated HL-60). In words: dHL-60 Cit-H3 ELISA assay. In kind it is cell-based, human. Conditions: Homo sapiens, HL-60, 3 h, stimulation with 25 μM A23187 for 3 h, read-out: Average IC50 Abs. The procedure: Cell culture: HL-60 cells were grown in IMDM+20% FBS+1% PS. The suspension cells were split into 1:5 with fresh media every 2-3 days to maintain cell density between 1×10^5 to 1×10^6 viable cells/mL. HL-60 cells differentiation: HL-60 cells were diluted to 1×10^5 cells/mL and differentiated into neutrophil-like cells with 100 mM DMF treatment for 72 hours in flask at 37° C., 5% CO2. dHL-60 Cells plating: • 1) HL-60 cells were collected, and the plate was centrifuged at 1000 rpm for 5 min. • 2) The HL-60 cells were diluted to 1.25×10^6 cells/mL and plated into a 96-well plate with 80 μL/well (i.e., 1×10^5/well). The plate was then incubated in the incubator (5% CO2, 37° C.) for 30 min to allow cells to adhere. Compound treatment: • 1) Preparation of compound serial dilution (source plate 500×, final DMSO concentration: 0.2%): briefly, compounds were dissolved in 100% DMSO to a concentration of 20 mM (the stock solution) and a 3-fold serial dilution with 8-point doses was performed. • 2) A 10× compound solution was pipetted up and down; and 10 μL/well of compounds were added into each well and incubated for 30 min. Stimulation with 25 μM A23187: • 1) A solution of A23187 (250 μM) in complete IMDM (IMDM+10% FBS+1% PS) containing 150 U/mL S7 Nuclease was prepared. The obtained solution was added 10 μL/well into each well and incubated for 3 h in the incubator (5% CO2, 37° C.). • 2) The dHL-60 cells treated with 10 μL/well complete IMDM without A23187 worked as negative control. Sample preparation: • 1) EDTA (0.5 M, 2 μL/well) were added to all the wells to stop the reaction. • 2) The plate was centrifuged at 1000 rpm for 5 min to collect supernatant. • 3) The supernatant was then diluted at least 1:2 before adding to the ELISA plate for citrullinated H3 analysis.
The standard was reconstituted with 2 mL of Assay buffer to 500 ng/mL. The reconstituted standard was relatively unstable at 4° C. and should be used within 3 hr after reconstitution.
• 1) 100 μL of the standards or diluted samples were added to the wells on the ELISA plate. • 2) The plate was covered with Cover Sheet and incubated for 2 h at room temperaturert on an orbital shaker.
On the day of the assay, the reagent was thawed at room temperaturert. For one plate, 1.2 mL of HRP Conjugate were diluted into 10.8 mL of assay buffer. A diluted HRP Conjugate was prepared shortly before use.
• 1) The wells were empties and rinsed four times with 1× wash buffer with 300 μL/well (Low speed). The plate was inverted between wash steps to empty the plate. After the last wash, the inverted plate was gently tapped on absorbent paper to remove the residual wash buffer. • 2) 100 μL of the HRP Conjugate working solution were added to each well of the plate. • 3) The plate was covered with cover sheet and incubated for 1 h at RT on an orbital shaker.
• 1) The wells were empties and rinsed four times with 1× wash buffer with 300 μL/well (low speed). The plate was inverted between wash steps to empty the plate. […] 100 uL of HRP STOP solution were added to each well of the plate.
• 1) Wipe the bottom of the plate with a clean tissue to remove fingerprints, dirt, etc. • 2) Read the plate at a wavelength of 450 nm.
The percent (%) inhibition at each concentration of compound was calculated based on and relative to the signal in the HPE and ZPE wells contained within each assay plate. The HPE wells worked as […], and the ZPE wells didn't contain any compound but rather DMSO (final concentration=0.1%) as […]. The concentrations and % inhibition values for tested compounds were plotted and the concentration of compound required for 50% inhibition (IC50) was determined with a Four-parameter logistic dose response equation. The endpoint value (IC50) for the reference peptide/compound was evaluated in each experiment as a quality control measure. If the endpoint value is within 3-fold of the expected value then the experiment is deemed acceptable. […]

In experiment [2] the target is Protein arginine deiminase 4 (PAD4) (Homo sapiens, UniProt Q9UM07). As to the kind of experiment: PAD4 ammonia release assay. In kind it is biochemical. The essentials: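 Ammonia release from BAEE substrate (2× mix 600 μM) was measured after 60 min at RT, following 15 min enzyme–compound preincubation (PAD4 2× 20 nM; pH 8.0 HEPES, 2 mM CaCl2, TCEP; 1.25% DMSO). Detection used OPA/DTT/EDTA for 120 min. % inhibition was taken versus reference-compound and DMSO controls; IC50 by four-parameter logistic fit.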
Protein arginine deiminase 4 (PAD4), sequence (Q9UM07 whole entry): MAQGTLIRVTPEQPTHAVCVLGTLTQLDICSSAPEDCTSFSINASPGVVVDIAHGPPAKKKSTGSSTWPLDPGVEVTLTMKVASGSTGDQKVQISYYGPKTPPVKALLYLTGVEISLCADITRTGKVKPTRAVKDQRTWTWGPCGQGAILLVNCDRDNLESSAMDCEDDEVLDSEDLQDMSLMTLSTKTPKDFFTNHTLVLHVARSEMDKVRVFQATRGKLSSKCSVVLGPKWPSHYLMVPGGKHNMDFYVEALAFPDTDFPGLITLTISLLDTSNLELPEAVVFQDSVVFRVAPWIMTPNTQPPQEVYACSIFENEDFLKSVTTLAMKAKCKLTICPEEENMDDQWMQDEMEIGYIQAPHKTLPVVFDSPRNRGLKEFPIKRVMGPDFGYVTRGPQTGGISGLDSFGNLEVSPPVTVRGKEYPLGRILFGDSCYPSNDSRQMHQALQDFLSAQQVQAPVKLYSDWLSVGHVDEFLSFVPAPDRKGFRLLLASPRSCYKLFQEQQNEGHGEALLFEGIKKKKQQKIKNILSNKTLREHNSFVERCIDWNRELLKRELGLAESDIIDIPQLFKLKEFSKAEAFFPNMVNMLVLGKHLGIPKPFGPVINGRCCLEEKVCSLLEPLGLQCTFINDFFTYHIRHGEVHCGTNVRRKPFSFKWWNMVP

Setting [3] is: PAD4 ammonia release assay, BAEE substrate, 60 min at RT, read-out: Average IC50 Abs.

Like-named read-outs stand apart in the source and are kept apart here.

For `COc1cc(C(=O)N2CCC[C@@H](N)C2)cc2nc(-c3cc4cccc5c4n3CCN5)n(C)c12` [Example 2, (R)-(3-aminopiperidin-1-yl)(2-(2,3-dihydro-1H-pyrrolo[1,2,3-de]quinoxalin-5-yl)-7-methoxy-1-methyl-1H-benzo[d]imidazol-5-yl)methanone], the IC50 is 500 to 5000 nM in experiment [1]; 5430 nM in experiment [2] (PAD4 activity comparison, read-out: PAD4 Ammonia assay IC50); greater than 5000 nM in experiment [2] (setting [3]).
`Cn1c(-c2cc3ccc(S(C)(=O)=O)c4c3n2C(C2CC2)CN4)nc2cc(C(=O)N3C[C@H]4CC[C@@H]3[C@@H]4N)cc(F)c21` (stereo partly drawn) [Example 123, ((1R,4R,7R)-7-amino-2-azabicyclo[2.2.1]heptan-2-yl)(2-(3-cyclopropyl-9-(methylsulfonyl)-2,3-dihydro-1H-pyrrolo[1,2,3-de]quinoxalin-5-yl)-7-fluoro-1-methyl-1H-benzo[d]imidazol-5-yl)methanone]: the IC50 in experiment [1] and in experiment [2] (setting [3]) was no more than 100 nM throughout.
`C#CCn1c(-c2cc3cccc4c3n2C(CC)CN4CCCO)nc2cc(C(=O)N3C[C@H]4CC[C@@H]3[C@@H]4N)cc(F)c21` (stereo partly drawn) [Example 91, ((1R,4R,7R)-7-amino-2-azabicyclo[2.2.1]heptan-2-yl)(2-(3-ethyl-1-(3-hydroxypropyl)-2,3-dihydro-1H-pyrrolo[1,2,3-de]quinoxalin-5-yl)-7-fluoro-1-(prop-2-yn-1-yl)-1H-benzo[d]imidazol-5-yl)methanone]: the IC50 in experiment [1] and in experiment [2] (setting [3]) was 100 to 500 nM in each case.
For the compound `CCC1CN(CCCO)c2cccc3cc(-c4nc5cc(C(=O)N6C[C@H]7CC[C@@H]6[C@@H]7N)cc(OC)c5n4C)n1c23` (stereo partly drawn) [Example 85, ((1R,4R,7R)-7-amino-2-azabicyclo[2.2.1]heptan-2-yl)(2-(3-ethyl-1-(3-hydroxypropyl)-2,3-dihydro-1H-pyrrolo[1,2,3-de]quinoxalin-5-yl)-7-methoxy-1-methyl-1H-benzo[d]imidazol-5-yl)methanone], the IC50 was no more than 100 nM in experiment [1] and 100 to 500 nM in experiment [2] (setting [3]).
With `CCn1c(-c2cc3cccc4c3n2C(C)CN4CCCO)nc2cc(C(=O)N3C[C@H]4CC[C@@H]3[C@@H]4N)cc(OC)c21` (stereo partly drawn) [Example 68, ((1R,4R,7R)-7-amino-2-azabicyclo[2.2.1]heptan-2-yl)(1-ethyl-2-(1-(3-hydroxypropyl)-3-methyl-2,3-dihydro-1H-pyrrolo[1,2,3-de]quinoxalin-5-yl)-7-methoxy-1H-benzo[d]imidazol-5-yl)methanone], the 50% inhibitory concentration (IC50) in experiment [1] and in experiment [2] (setting [3]) was 100 to 500 nM in each case.
As to `CCn1cc(Cn2c(-c3cc4cccc5c4n3CCN5CCCO)nc3cc(C(=O)N4C[C@H](N)C[C@@H](F)C4)cc(F)c32)cn1` [Example 38, ((3R,5R)-3-amino-5-fluoropiperidin-1-yl)(1-((1-ethyl-1H-pyrazol-4-yl)methyl)-7-fluoro-2-(1-(3-hydroxypropyl)-2,3-dihydro-1H-pyrrolo[1,2,3-de]quinoxalin-5-yl)-1H-benzo[d]imidazol-5-yl)methanone], the results for the IC50 in experiment [1] and in experiment [2] (setting [3]) were 500 to 5000 nM and no more than 100 nM, respectively.
Take `COc1cc(C(=O)N2C[C@H](N)C[C@@H](F)C2)cc2nc(-c3cc4cccc5c4n3CCN5CCCO)n(CC3CC3)c12` [Example 59, ((3R,5R)-3-amino-5-fluoropiperidin-1-yl)(1-(cyclopropylmethyl)-2-(1-(3-hydroxypropyl)-2,3-dihydro-1H-pyrrolo[1,2,3-de]quinoxalin-5-yl)-7-methoxy-1H-benzo[d]imidazol-5-yl)methanone]: the concentration for half-maximal inhibition (IC50) in experiment [1] was 500 to 5000 nM; in experiment [2] (setting [3]), no more than 100 nM.
In the case of `COc1cc(C(=O)N2C[C@H](N)C[C@@H](F)C2)cc2nc(-c3cc4cccc5c4n3C(C)CN5CCCO)n(C)c12` (stereo partly drawn) [Example 64, ((3R,5R)-3-amino-5-fluoropiperidin-1-yl)(2-(1-(3-hydroxypropyl)-3-methyl-2,3-dihydro-1H-pyrrolo[1,2,3-de]quinoxalin-5-yl)-7-methoxy-1-methyl-1H-benzo[d]imidazol-5-yl)methanone], the IC50 in experiment [1] and in experiment [2] (setting [3]) was 100 to 500 nM in each case.
In the case of `Cn1c(-c2cc3cc(F)cc4c3n2C(C2CC2)CN4)nc2cc(C(=O)N3C[C@H]4CC[C@@H]3[C@@H]4N)cc(F)c21` (stereo partly drawn) [Example 122, ((1R,4R,7R)-7-amino-2-azabicyclo[2.2.1]heptan-2-yl)(2-(3-cyclopropyl-8-fluoro-2,3-dihydro-1H-pyrrolo[1,2,3-de]quinoxalin-5-yl)-7-fluoro-1-methyl-1H-benzo[d]imidazol-5-yl)methanone], the IC50 in experiment [1] and in experiment [2] (setting [3]) was 100 to 500 nM each time.
Take `CCC1CN(CCCO)c2cccc3cc(-c4nc5cc(C(=O)N6C[C@H]7CC[C@@H]6[C@@H]7N)cc(F)c5n4C)n1c23` (stereo partly drawn) [Example 69, ((1R,4R,7R)-7-amino-2-azabicyclo[2.2.1]heptan-2-yl)(2-(3-ethyl-1-(3-hydroxypropyl)-2,3-dihydro-1H-pyrrolo[1,2,3-de]quinoxalin-5-yl)-7-fluoro-1-methyl-1H-benzo[d]imidazol-5-yl)methanone]: the IC50 in experiment [1] and in experiment [2] (setting [3]) was no more than 100 nM in each case.
`Cn1cc(Cn2c(-c3cc4cccc5c4n3CCN5CCCO)nc3cc(C(=O)N4C[C@@H](N)C[C@H](F)C4)cc(F)c32)cn1` [Example 46, ((3S,5S)-3-amino-5-fluoropiperidin-1-yl)(7-fluoro-2-(1-(3-hydroxypropyl)-2,3-dihydro-1H-pyrrolo[1,2,3-de]quinoxalin-5-yl)-1-((1-methyl-1H-pyrazol-4-yl)methyl)-1H-benzo[d]imidazol-5-yl)methanone]: the IC50 in experiment [1] was 500 to 5000 nM; in experiment [2] (setting [3]), no more than 100 nM.
For the compound `CC(=O)N1CCc2c(ccc3cc(-c4nc5cc(C(=O)N6C[C@H]7CC[C@@H]6[C@@H]7N)cc(F)c5n4C)n(CC4CC4)c23)C1` [Example 156, 1-(2-(5-((1R,4R,7R)-7-amino-2-azabicyclo[2.2.1]heptane-2-carbonyl)-7-fluoro-1-methyl-1H-benzo[d]imidazol-2-yl)-1-(cyclopropylmethyl)-1,6,8,9-tetrahydro-7H-pyrrolo[2,3-f]isoquinolin-7-yl)ethan-1-one], the IC50 in experiment [1] and in experiment [2] (setting [3]) was no more than 100 nM in each case.
Regarding `Cn1c(-c2cc3ccc4c(c3n2CC2CC2)NCCS4)nc2cc(C(=O)N3C[C@H]4CC[C@@H]3[C@@H]4N)cc(F)c21` [Example 161, ((1R,4R,7R)-7-amino-2-azabicyclo[2.2.1]heptan-2-yl)(2-(9-(cyclopropylmethyl)-1,2,3,9-tetrahydro-[1,4]thiazino[2,3-g]indol-8-yl)-7-fluoro-1-methyl-1H-benzo[d]imidazol-5-yl)methanone], the concentration for half-maximal inhibition (IC50) in experiment [1] and in experiment [2] (setting [3]) was no more than 100 nM throughout.
